pIC50, pKi: −log10 of the molar value.
Key:
Test in all cases: CA Activity Assay
Settings in all cases: pH 7.4
[1] = target: T1, Carbonic anhydrase 3 (Bos taurus, UniProt Q3SZX4)
T1 sequence (Q3SZX4 whole entry): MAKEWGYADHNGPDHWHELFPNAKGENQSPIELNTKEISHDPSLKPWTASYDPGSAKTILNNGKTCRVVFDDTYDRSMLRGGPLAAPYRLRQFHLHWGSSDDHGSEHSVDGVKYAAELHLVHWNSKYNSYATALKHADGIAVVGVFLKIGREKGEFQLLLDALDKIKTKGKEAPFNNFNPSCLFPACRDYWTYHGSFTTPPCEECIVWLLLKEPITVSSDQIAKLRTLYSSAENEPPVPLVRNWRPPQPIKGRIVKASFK

[2] = target: Carbonic anhydrase 6 (Homo sapiens, UniProt P23280)
Chain of Carbonic anhydrase 6 (P23280 whole entry): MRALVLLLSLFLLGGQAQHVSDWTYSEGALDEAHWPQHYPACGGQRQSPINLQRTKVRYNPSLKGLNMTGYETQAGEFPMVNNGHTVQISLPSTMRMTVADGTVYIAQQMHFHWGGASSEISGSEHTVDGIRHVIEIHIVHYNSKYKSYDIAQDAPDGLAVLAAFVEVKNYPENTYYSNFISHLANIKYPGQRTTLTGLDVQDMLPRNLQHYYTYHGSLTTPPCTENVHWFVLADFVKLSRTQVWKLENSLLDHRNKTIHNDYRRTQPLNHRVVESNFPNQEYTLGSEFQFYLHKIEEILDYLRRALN

[3] = target: Carbonic anhydrase 2 (Homo sapiens, UniProt P00918)
[4] = target: Carbonic anhydrase 1 (Homo sapiens, UniProt P00915)
Chain of Carbonic anhydrase 1 (P00915 whole entry): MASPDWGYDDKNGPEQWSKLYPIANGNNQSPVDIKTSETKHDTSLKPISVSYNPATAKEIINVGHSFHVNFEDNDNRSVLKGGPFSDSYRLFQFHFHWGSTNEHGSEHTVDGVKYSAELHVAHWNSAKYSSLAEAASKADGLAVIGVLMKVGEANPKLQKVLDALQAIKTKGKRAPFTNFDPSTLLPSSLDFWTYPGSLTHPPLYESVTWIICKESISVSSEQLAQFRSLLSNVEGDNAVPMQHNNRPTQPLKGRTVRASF

Row | pKi [1] | pKi [2] | pKi [3] | pKi [4] | Compound | pIC50 [1]
1 |  |  |  |  | Oc1ccccc1 | 5.33
2 |  |  |  |  | c1ccc(-c2cc(OCCCN3CCCC3)nc(-c3ccccc3)n2)cc1 | 4.18
3 |  |  |  |  | Oc1ccccc1O [1,2-Dihydroxybenzene, XI] | 5.24
4 | 5.37 |  |  |  | O[C@@H]1CCCC[C@H]1O [(1R,2R)-trans-1,2-cyclohexanediol] | 
5 | 4.88 | 4.87 | 4.84 | 3.68 | Cc1ccc(S(=O)(=O)Nc2ccccc2)cc1 [CA inhibitor, 2] | 
6 | 5.61 | 4.61 | 5.99 | 4.30 | Cc1ccc(NS(=O)(=O)c2ccc(C)cc2)cc1 [Carbonic anhydrase inhibitors (CAIs), 1] | 
7 | 5.57 | 5.35 | 5.43 | 4.15 | Cc1ccc(S(=O)(=O)N[C@@H]2C=CCC[C@@H]2O)cc1 [Carbonic anhydrase inhibitors (CAIs), 3] | 
8 | 4.24 | 3.56 | 4.66 | 3.42 | Cc1ccc(S(=O)(=O)N2[C@@H]3C=CCC[C@@H]3OC2(C)C)cc1 [Carbonic anhydrase inhibitors (CAIs), 4] | 
9 | 6.23 | 5.95 | 6.33 | 5.26 | Cc1ccc(S(=O)(=O)N[C@@H]2[C@@H](O)[C@@H](O)CC[C@@H]2O)cc1 [Carbonic anhydrase inhibitors (CAIs), 5] | 
10 | 5.76 | 5.42 | 6.09 | 5.03 | Cc1ccc(S(=O)(=O)N[C@@H]2[C@@H](O)[C@H](O)CC[C@@H]2O)cc1 [Carbonic anhydrase inhibitors (CAIs), 6] | 
11 | 5.92 | 4.78 | 5.74 | 4.66 | O[C@@H]1CCCC[C@@H]1O [Carbonic anhydrase inhibitors (CAIs), 7] | 
12 | 4.03 | 4.93 | 6.46 | 4.58 | Nc1ccc(S(=O)(=O)Nc2ccccn2)cc1 [MLS000069725] | 

Reference: BindingDB's records for doi:10.3109/14756366.2011.621122 (Ondokuz Mayis University, 2012)
